Measurements: patent US20120202756A1, “USE OF PRODRUGS TO AVOID GI MEDIATED ADVERSE EVENTS” (priority 2009, published 2012)
Structures can show the parent of a compound that is named as a salt. Where two headings read alike, the source gives them in different places.

How the values were obtained:
[1] = tested on: Staphylococcus haemolyticus; assay: MIC, clindamycin prodrugs; format: cell-based; details: antibiotic susceptible clinical isolate
[2] = tested on: Veillonella atypical; assay: MIC, clindamycin prodrugs; format: cell-based; details: NCTC 11830
[3] = tested on: Prevotella melaninogenicus; assay: MIC, clindamycin prodrugs; format: cell-based
[4] = tested on: Campylobacter coli; assay: MIC, clindamycin prodrugs; format: cell-based
[5] = tested on: Bifidobacterium longum; assay: MIC, clindamycin prodrugs; format: cell-based; details: NCTC 11818
[6] = tested on: Propionibacterium acnes; assay: MIC, clindamycin prodrugs; format: cell-based
[7] = tested on: Clostridium perfringens; assay: microbe, parasite or virus in culture; format: cell-based
[8] = tested on: Peptostreptococcus micros; details: clinical isolate
[9] = tested on: Streptococcus pneumoniae; assay: MIC, clindamycin prodrugs; format: cell-based
[10] = tested on: Helicobacter pylori; assay: MIC, clindamycin prodrugs; format: cell-based
[11] = Stability in simulated intestinal juice (FeSSIF); format: in vitro ADME; details: FeSSIF pH 5.0, pancreatin 1%
[12] = tested on: Staphylococcusaureus; assay: MIC, clindamycin prodrugs; format: cell-based
[13] = tested on: Clostridium sporogenes; assay: MIC, clindamycin prodrugs; format: cell-based; details: ATCC 3584
[14] = tested on: Veillonella spp.; details: clinical isolate
[15] = tested on: Veillonella parvula; assay: MIC, clindamycin prodrugs; format: cell-based; details: NCTC 11810
[16] = tested on: Prevotella intermedia; details: clinical isolate
[17] = tested on: Clostridium bifermentans; details: ATCC 638
[18] = tested on: Streptococcus pyogenes; assay: MIC, clindamycin prodrugs; format: cell-based
[19] = tested on: Enterococcus faecium; details: vancomycin-susceptible clinical isolate
[20] = tested on: Prevotella oralis; details: clinical isolate
[21] = tested on: Campylobacter jejuni; assay: MIC, clindamycin prodrugs; format: cell-based
[22] = tested on: Bacteroides fragilis; assay: MIC, clindamycin prodrugs; format: cell-based
[23] = tested on: Bifidobacterium adolescentis; assay: MIC, clindamycin prodrugs; format: cell-based; details: NCTC 11814
[24] = tested on: Group C Streptococcus; assay: MIC, clindamycin prodrugs; format: cell-based; details: antibiotic-susceptible clinical isolate
[25] = tested on: Bifidobacterium dentium; assay: MIC, clindamycin prodrugs; format: cell-based; details: NCTC 11816
[26] = tested on: Staphylococcus saprophyticus; details: antibiotic susceptible clinical isolate
[27] = tested on: Staphylococcus epidermidis; assay: MIC, clindamycin prodrugs; format: cell-based
[28] = tested on: Bacteroides thetaiotamicron; assay: MIC, clindamycin prodrugs; format: cell-based
[29] = Stability in simulated intestinal juice (FaSSIF); format: in vitro ADME; details: FaSSIF pH 6.5, pancreatin 1%, prodrug 20 μg/mL
Procedure, shortened: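 Prodrug (20 μg/mL) was incubated for 2 h at 37° C in FaSSIF (taurocholate 3 mM, lecithin 0.75 mM, 1% pancreatin, pH 6.5). After acid quench, remaining prodrug and released parent drug were measured by LC-MS/MS.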

[30] = antibiotic-susceptible clinical isolate

CCCC1CC(C(=O)NC(C(C)Cl)C2OC(SC)C(OC(=O)CCC(=O)N[C@H](C(=O)O)C(C)C)C(O)C2O)N(C)C1 (stereo partly drawn) [Clindamycin succinyl valine ester, Clindamycin-2-[succinyl-(S)-valine]ester trifluoroacetate]
Minimum inhibitory concentration [1]: 2 µg/mL | Minimum inhibitory concentration [2]: 2 µg/mL | Minimum inhibitory concentration ([3]; clinical isolate (first listed, r37)): 0.25 µg/mL | Minimum inhibitory concentration ([3]; clinical isolate (second listed, r38)): 0.25 µg/mL | Minimum inhibitory concentration ([4]; ATCC 33559): ≦0.03 ug/mL | Minimum inhibitory concentration ([4]; clinical isolate): ≦0.03 ug/mL | Minimum inhibitory concentration [5]: 0.5 µg/mL | Minimum inhibitory concentration [6]: 2 µg/mL | Minimum inhibitory concentration ([6]; clinical isolate MIC clindamycin 0.5 mg/L): 2 µg/mL | Minimum inhibitory concentration ([7]; ATCC 13124): 1 µg/mL | Minimum inhibitory concentration [7, 30]: 1 µg/mL | Minimum inhibitory concentration [8]: 2 µg/mL | Minimum inhibitory concentration ([9]; ATCC 49619 antibiotic-susceptible type strain): 0.5 µg/mL | Minimum inhibitory concentration ([9]; penicillin-susceptible clinical isolate): 0.5 µg/mL | Minimum inhibitory concentration ([10]; ATCC 43504): ≦0.03 ug/mL | Minimum inhibitory concentration ([10]; clinical isolate (r56)): ≦0.03 ug/mL | Minimum inhibitory concentration ([10]; clinical isolate (r57)): ≦0.03 ug/mL | Minimum inhibitory concentration ([10]; clinical isolate (r100)): ≦0.03 ug/mL | Minimum inhibitory concentration ([10]; clinical isolate (r101)): ≦0.03 ug/mL | Simulated intestinal juice (2 h, 37° C.) (FeSSIF) % active drug generated [11]: <1% | Minimum inhibitory concentration ([12]; ATCC 25923 - antibiotic-susceptible type strain): 1 µg/mL | Minimum inhibitory concentration ([12]; ATCC 29213 - antibiotic-susceptible type strain): 2 µg/mL | Minimum inhibitory concentration ([12]; ATCC 43300 - methicillin-resistant type strain): >64 µg/mL | Minimum inhibitory concentration [13]: >64 µg/mL | Minimum inhibitory concentration [14]: 0.5 µg/mL | Minimum inhibitory concentration [15]: 1 µg/mL | Minimum inhibitory concentration [16]: 0.12 µg/mL | Minimum inhibitory concentration [17]: 4 µg/mL | Minimum inhibitory concentration ([18]; Macrolide (MLS) resistant clinical isolate): 2 µg/mL | Minimum inhibitory concentration [18, 30]: 1 µg/mL | Minimum inhibitory concentration [19]: >64 µg/mL | Minimum inhibitory concentration [20]: ≦0.03 ug/mL | Minimum inhibitory concentration ([21]; ATCC 33560): ≦0.03 ug/mL | Minimum inhibitory concentration ([21]; clinical isolate): ≦0.03 ug/mL | Minimum inhibitory concentration ([22]; ATCC 25285): 8 µg/mL | Minimum inhibitory concentration ([22]; clinical isolate): 8 µg/mL | Minimum inhibitory concentration [23]: 0.5 µg/mL | Minimum inhibitory concentration [24]: 1 µg/mL | Minimum inhibitory concentration [25]: 0.5 µg/mL | Minimum inhibitory concentration [26]: 1 µg/mL | Minimum inhibitory concentration ([27]; antibiotic susceptible clinical isolate): 2 µg/mL | Minimum inhibitory concentration ([27]; methicillin-resistant clinical isolate): 4 µg/mL | Minimum inhibitory concentration ([28]; ATCC 29741): 16 µg/mL | Minimum inhibitory concentration ([28]; NCTC 10582): 32 µg/mL | Simulated intestinal juice (2 h, 37° C.) (FaSSIF) % active drug generated [29]: <1%
